Test results taken from patent US11707449B2, “Methods and formulations for treatment of spinobulbar muscular atrophy” (ST. JUDE CHILDREN'S RESEARCH HOSPITAL, INC., priority 2017, dated 2023).

How the values were obtained:
[1] = molecular target: T1, AR BF3 binding pocket and Bag-1L (Homo sapiens, UniProt P10275); settings: cited from earlier work
T1 sequence (P10275 1-920): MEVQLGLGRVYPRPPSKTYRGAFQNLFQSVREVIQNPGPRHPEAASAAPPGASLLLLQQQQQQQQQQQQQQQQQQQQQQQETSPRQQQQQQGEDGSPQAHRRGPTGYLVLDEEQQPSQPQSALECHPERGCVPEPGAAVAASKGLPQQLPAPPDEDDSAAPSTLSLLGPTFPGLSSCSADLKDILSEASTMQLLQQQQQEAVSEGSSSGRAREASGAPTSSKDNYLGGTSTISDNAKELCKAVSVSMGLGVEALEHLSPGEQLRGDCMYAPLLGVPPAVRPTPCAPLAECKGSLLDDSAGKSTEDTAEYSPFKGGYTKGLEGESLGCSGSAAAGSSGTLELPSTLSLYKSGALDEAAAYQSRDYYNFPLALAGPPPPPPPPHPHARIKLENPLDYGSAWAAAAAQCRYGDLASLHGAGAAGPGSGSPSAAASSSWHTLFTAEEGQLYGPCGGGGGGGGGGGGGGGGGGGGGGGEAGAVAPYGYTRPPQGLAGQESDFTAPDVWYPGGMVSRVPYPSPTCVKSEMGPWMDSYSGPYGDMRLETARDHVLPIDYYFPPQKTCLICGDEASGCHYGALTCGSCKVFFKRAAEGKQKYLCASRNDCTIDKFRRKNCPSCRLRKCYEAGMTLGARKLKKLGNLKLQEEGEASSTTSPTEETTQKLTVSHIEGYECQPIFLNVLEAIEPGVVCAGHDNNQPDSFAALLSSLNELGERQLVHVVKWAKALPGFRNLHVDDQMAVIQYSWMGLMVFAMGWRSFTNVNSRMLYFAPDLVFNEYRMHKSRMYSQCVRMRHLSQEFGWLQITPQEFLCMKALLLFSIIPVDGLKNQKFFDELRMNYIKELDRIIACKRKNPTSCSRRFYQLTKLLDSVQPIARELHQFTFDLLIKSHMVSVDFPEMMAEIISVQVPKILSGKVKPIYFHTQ

[2] = test system: flies expressing human AR52Q in pan-neuronal tissues (ELAV>UAS-AR52Q); assay: Viability of SBMA flies (rescue of DHT-induced lethality); assay type: in vivo, Drosophila; settings: flies reared on food containing 1 mM DHT and compound (TA, MEPB 0 to 400 μM)
Description: UAS-AR52Q, UAS-AR52Q-K720A, and UAS-AR66Q-E897K fly stocks were generated as previously described^8. Fly stocks were crossed to various GAL4 driver lines (ELAV-GAL4 for pan-neuronal, OK371-GAL4 for motor neuron, GMR-GAL4 for eye) to induce expression of the AR transgene in a tissue-specific manner in fly vials containing fly food with either vehicle (1% ethanol +/−0.1% DMSO) or drugs. Upon the presence of progeny, parental flies were removed, and F1 flies were scored for phenotypic analysis. Viability was determined as previously described^40. Briefly, the population frequency of adult F1 SBMA flies (ELAV>UAS-AR52Q or OK371>UAS-AR52Q) and control flies (GAL4-ELAV; CyO-GFP) were determined by the presence or absence of the CyO phenotypic marker. At least three independent biological replicates (F0 crosses) were performed with new drug/food preparations for each treatment group, and a total of at least 50 flies were scored for each treatment group. To determine locomotor activity of SBMA flies, adult F1 flies (OK371>UAS-AR52Q) reared on food containing vehicle or drug were allowed to walk for 90 seconds in one well of a 12-well tissue culture plate while video was recorded using a Leica M205C stereomicroscope and Leica DFC320 digital camera. Videos were recorded for at least 15 flies per treatment group. Tracing of fly movement and analysis of displacement and velocity were performed using ImageJ software. Preparation and staining of larval neuromuscular junctions and ventral ganglions were performed as previously described^8.

Row | SMILES | BF3-Bag-1L binding [1] | SBMA fly viability [2]
1 | Cc1cccc(C)c1OCCSc1nc2ccccc2[nH]1 [CPD49, 2-((2-(2,6-dimethylphenoxy)ethyl)thio)-1H-benzimidazole] | inhibited | –
2 | CC(C)Cc1ccc(C(C)C(=O)O)cc1 (centres unmarked) [ibuprofen] | – | did not
